From patent publication US10441663B2, “Methods for treating cancer” (Bicycle Therapeutics Limited, priority 2016, dated 2019)
*1 amine or outer side, *2 acyl side, *3 side chain or, on linkers, in order; H or OH if unused. Where a SMILES comes first, the peptide text is derived from it. Bridges are numbered along the chain shown (N, C = ends). [ ]: non-standard residue; d: D form. The star is where a group is joined. X1 = COc1cc2cc(c1Cl)N(C)C(=O)C[C@H](OC(=O)[C@H](C)N(C)C(=O)CCSSC(C)CCC(=O)*)[C@]1(C)O[C@H]1[C@H](C)[C@@H]1C[C@@](O)(NC(=O)O1)[C@H](OC)/C=C/C=C(\C)C2; 1Nal = N[C@@H](Cc1cccc2ccccc12)C(=O)O; TBMB = c1c(C[*:1])cc(C[*:3])cc1C[*:2]; Tle = CC(C)(C)[C@H](N)C(=O)O; βAla = NCCC(=O)O; Sar = CNCC(=O)O

Tested on: MDA-MB-231 xenograft
Assay: In vivo efficacy of BT1718 in MDA-MB-231 xenograft
Parameters: species or system Mus Musculus; key to Best response at 10 mg/kg: CR complete response; PR partial response
Description: The objective of this study was to evaluate the in vivo anti-tumor efficacy of BT1718in treatment of HT1080, NCI-H292, NCI-H1975, MDA-MB-231, HCC1806, RPMI2650, HCT-15, HT-29 and SNU-16 xenograft in BALB/c nude mice.
The HT1080, NCI-H292, NCI-H1975, MDA-MB-231, HCC1806, RPMI2650, HCT-15, HT-29 and SNU-16 tumor cells were maintained in vitro as a monolayer culture in medium supplemented with 10% heat inactivated fetal bovine serum at 37° C. in an […]. The tumor cells will be routinely subcultured twice weekly by trypsin-EDTA treatment. The cells growing in an exponential growth phase will be harvested and counted for tumor inoculation.
Mouse was inoculated subcutaneously at the right flank with tumor cells for tumor development. The animals were randomized and treatment was started when the average tumor reaches certain volume for the efficacy study, the inoculating cell amounts and starting tumor size were shown as below in Table 9. The test article administration and the animal numbers in each group were shown in the experimental design in Table 10.
All the procedures related to animal handling, care and the treatment in the study were performed according to the guidelines of the Association for Assessment and Accreditation of Laboratory Animal Care (AAALAC). At the time of routine monitoring, the animals were daily checked for any effects of tumor growth and treatments on normal behavior such as mobility, food and water consumption (by looking only), body weight gain/loss (body weights were measured every day), eye/hair matting and any other abnormal effect as stated in the protocol. Death and observed clinical signs were recorded on the basis of the numbers of animals within each subset.
The major endpoint was to see if the tumor growth could be delayed or mice could be cured. Tumor size was measured three times weekly in two dimensions using a caliper, and the volume was expressed in mm^3 using the formula: V=0.5 a×b^2 where a and b are the long and short diameters of the tumor, respectively. The tumor size was then used for calculations of T/C value. The T/C value (in percent) is an indication of antitumor effectiveness; T and C are the mean volumes of the treated and control groups, respectively, on a given day.
TGI was calculated for each group using the formula: TGI (%)=[1−(Ti−T0)/(Vi−V0)]×100; Ti is the average tumor volume of a treatment group on a given day, T0 is the average tumor volume of the treatment group on the day of treatment start, Vi is the average tumor volume of the vehicle control group on the same day with Ti, and V0 is the average tumor volume of the vehicle group on the day of treatment start.
Summary statistics, including mean and the standard error of the mean (SEM), are provided for the tumor volume of each group at each time point.
Statistical analysis of difference in tumor volume among the groups was conducted on the data obtained at the best therapeutic time point after the final dose.
A one-way ANOVA was performed to compare tumor volume among groups, and when a significant F-statistics (a ratio of treatment variance to the error variance) was obtained, comparisons between groups were carried out with Games-Howell test. All data were analyzed using Prism. P<0.05 was considered to be statistically significant.

[1] = MDA-MB-231, 10 mpk, biw, day 14

## COc1cc2cc(c1Cl)N(C)C(=O)C[C@H](OC(=O)[C@H](C)N(C)C(=O)CCSSC(C)CCC(=O)NCCC(=O)N(C)CC(=O)N(C)CC(=O)N(C)CC(=O)N(C)CC(=O)N(C)CC(=O)N(C)CC(=O)N(C)CC(=O)N(C)CC(=O)N(C)CC(=O)N(C)CC(=O)N[C@@H](C)C(=O)N[C@H]1CSCc3cc4cc(c3)CSC[C@H](NC(=O)[C@@H](C)NC(=O)[C@H](Cc3cccc5ccccc35)NC(=O)[C@H](CCC(=O)O)NC(=O)[C@H](CC(N)=O)NC(=O)[C@@H](C)NC1=O)C(=O)N[C@@H](CCC(=O)O)C(=O)N[C@@H](CC(=O)O)C(=O)N[C@@H](Cc1ccccc1)C(=O)N[C@@H](Cc1ccc(O)cc1)C(=O)N[C@@H](CC(=O)O)C(=O)N[C@@H](C(C)(C)C)C(=O)N[C@H](C(N)=O)CSC4)[C@]1(C)O[C@H]1[C@H](C)[C@@H]1C[C@@](O)(NC(=O)O1)[C@H](OC)/C=C/C=C(\C)C2 (stereo partly shown) [BT1718] ({X1-βAla}-[Sar][Sar][Sar][Sar][Sar][Sar][Sar][Sar][Sar][Sar]AC[dA]NE[1Nal][dA]CEDFYD[Tle]C-NH2; linker 12-18-25 via TBMB (inferred))
10 mg/kg biw re-treatment
  tumor behaviour on resumed treatment: slow re-growth
1 mpk biw, day 0
  Body Weight: 23.4 ± 0.5 g
  Tumor Volume: 187 ± 6 mm^3
1 mpk biw, day 2
  Body Weight: 23.3 ± 0.6 g
  Tumor Volume: 288 ± 25 mm^3
1 mpk biw, day 4
  Body Weight: 23.3 ± 0.6 g
  Tumor Volume: 435 ± 25 mm^3
1 mpk biw, day 7
  Body Weight: 24.6 ± 0.5 g
  Tumor Volume: 636 ± 53 mm^3
1 mpk biw, day 9
  Body Weight: 24.6 ± 0.6 g
  Tumor Volume: 822 ± 117 mm^3
1 mpk biw, day 11
  Body Weight: 24.1 ± 0.1 g
  Tumor Volume: 979 ± 51 mm^3
1 mpk biw, day 14
  Body Weight: 24.9 ± 0.5 g
  Tumor Volume: 1221 ± 62 mm^3
3 mpk biw, day 0
  Body Weight: 23.0 ± 0.9 g
  Tumor Volume: 187 ± 11 mm^3
3 mpk biw, day 2
  Body Weight: 22.5 ± 1.0 g
  Tumor Volume: 281 ± 23 mm^3
3 mpk biw, day 4
  Body Weight: 22.3 ± 1.0 g
  Tumor Volume: 389 ± 21 mm^3
3 mpk biw, day 7
  Body Weight: 23.8 ± 1.1 g
  Tumor Volume: 547 ± 38 mm^3
3 mpk biw, day 9
  Body Weight: 23.8 ± 1.1 g
  Tumor Volume: 729 ± 74 mm^3
3 mpk biw, day 11
  Body Weight: 23.6 ± 1.1 g
  Tumor Volume: 829 ± 79 mm^3
3 mpk biw, day 14
  Body Weight: 23.9 ± 1.3 g
  Tumor Volume: 1021 ± 65 mm^3
10 mpk biw, day 0
  Body Weight: 23.3 ± 1.0 g
  Tumor Volume: 187 ± 10 mm^3
10 mpk biw, day 2
  Body Weight: 22.9 ± 1.3 g
  Tumor Volume: 270 ± 25 mm^3
10 mpk biw, day 4
  Body Weight: 22.2 ± 0.9 g
  Tumor Volume: 312 ± 27 mm^3
10 mpk biw, day 7
  Body Weight: 23.3 ± 1.2 g
  Tumor Volume: 294 ± 31 mm^3
10 mpk biw, day 9
  Body Weight: 23.0 ± 1.1 g
  Tumor Volume: 248 ± 23 mm^3
10 mpk biw, day 11
  Body Weight: 21.6 ± 1.0 g
  Tumor Volume: 204 ± 19 mm^3
10 mpk biw, day 14
  Body Weight: 24.3 ± 1.1 g
  Tumor Volume: 158 ± 20 mm^3
MDA-MB-231, 10 mg/kg
  Best response at 10 mg/kg: CR
MDA-MB-231, 1 mpk, biw, day 14
  TGI: 7.6%
  Tumor Volume: 1221 ± 62 mm^3
MDA-MB-231, 3 mpk, biw, day 14
  TGI: 25.5%
  Tumor Volume: 1021 ± 65 mm^3
[1]
  TGI: 102.6%
  Tumor Volume: 158 ± 20 mm^3
MDA-MB-231, dose leading to tumor-stasis
  Minimally Effective Dose IV BIW: <10 mg/kg
After 10 mg/kg biw
  dosing suspension until re-growth to 150 mm3: 3 weeks
